Converted amounts (≈) assume the structure as drawn.
Assays:
[1] = tested on: Nematode J2; assay: Plant pathogenic nematode inhibition test by dipping: second-stage juveniles; assay type: in vivo; conditions: in vivo
[2] = tested on: Earthworm; assay: Earthworm toxicity test (Test Guidelines on Environmental Safety Assessment for Chemical Pesticides); assay type: in vivo; conditions: cell adds 'low toxicity'
Procedure: (§1) According to the earthworm and edaphon toxicity test procedures as prescribed in the Test Guidelines on Environmental Safety Assessment for Chemical Pesticides, earthworm and edaphon toxicity tests are conducted on compounds 1 to 60 from Table 1. The simulative usual dose of pesticide in the edaphon test is 40 ppm.

[3] = tested on: Edaphon; assay: Edaphon toxicity test (Test Guidelines on Environmental Safety Assessment for Chemical Pesticides); conditions: 15 d; 100 times of usual dose (simulative usual dose 40 ppm); cell adds 'low toxicity'
Procedure: as §1

[4] = tested on: Nematode eggs; assay: Plant pathogenic nematode inhibition test by dipping: nematode egg hatch inhibition (NY/T 1154.5-2006); assay type: in vivo; conditions: in vivo
Procedure: A plant pathogenic nematode inhibition test is conducted by dipping with the compounds in Table 1; and by referring to NY/T 1154.5-2006 (Part 5: Dipping Test for Insecticide Ovicidal Activity), the nematode egg hatch inhibition activity of the compounds is tested, as shown in Table 2: […]

Row | Structure (SMILES) | LC50 [1] | Earthworm Toxicity LC50 (14 d) [2] | Edaphon Toxicity (15 d) (Inhibition ratio when added amount is 100 times of usual dose) [3] | LC50 [4]
1 | O=C1CC(C(=O)OCCC(F)=C(F)F)C(c2c(F)cccc2C(F)(F)F)O1 (centres unmarked) [Compound 31] | 10.07 µg/mL (≈ 25.2 µM) | >10, low toxicity mg/L | <50%, low toxicity | 9.60 µg/mL (≈ 24 µM)
2 | COc1ccc(C2OC(=O)CC2C(=O)OCCC(F)=C(F)F)cc1 (centres unmarked) [Compound 39] | 13.40 µg/mL (≈ 38.9 µM) | >10, low toxicity mg/L | <50%, low toxicity | 11.85 µg/mL (≈ 34.4 µM)
3 | O=C1CC(C(=O)OCCC(F)=C(F)F)C(c2c(F)c(F)c(F)c(F)c2F)O1 (centres unmarked) [Compound 29] | 13.86 µg/mL (≈ 34.3 µM) | >10, low toxicity mg/L | <50%, low toxicity | 12.24 µg/mL (≈ 30.3 µM)
4 | O=C1CC(C(=O)OCCC=C(F)F)C(c2ccccc2C(F)(F)F)O1 (centres unmarked) [Compound 45] | 12.35 µg/mL (≈ 33.9 µM) | >10, low toxicity mg/L | <50%, low toxicity | 10.14 µg/mL (≈ 27.8 µM)
5 | O=C1CC(C(=O)OCCC(F)=C(F)F)C(c2cc(C(F)(F)F)cc(C(F)(F)F)c2)O1 (centres unmarked) [Compound 48] | 13.27 µg/mL (≈ 29.5 µM) | >10, low toxicity mg/L | <50%, low toxicity | 12.25 µg/mL (≈ 27.2 µM)
6 | CCOc1ccc(C2OC(=O)CC2C(=O)OCCC(F)=C(F)F)cc1 (centres unmarked) [Compound 44] | 13.12 µg/mL (≈ 36.6 µM) | >10, low toxicity mg/L | <50%, low toxicity | 10.23 µg/mL (≈ 28.6 µM)
7 | O=C1CC(C(=O)OCCC=C(F)F)C(c2ccccc2OC(F)(F)F)O1 (centres unmarked) [Compound 40] | 13.40 µg/mL (≈ 35.2 µM) | >10, low toxicity mg/L | <50%, low toxicity | 10.04 µg/mL (≈ 26.4 µM)
8 | O=C1CC(C(=O)OCCC(F)=C(F)F)C(c2ccc(Oc3ccc(F)cc3)cc2)O1 (centres unmarked) [Compound 55] | 15.36 µg/mL (≈ 36.2 µM) | >10, low toxicity mg/L | <50%, low toxicity | 13.24 µg/mL (≈ 31.2 µM)
9 | O=C1CC(C(=O)OCCC(F)=C(F)F)C(c2c(F)cccc2Cl)O1 (centres unmarked) [Compound 16] | 12.25 µg/mL (≈ 33.4 µM) | >10, low toxicity mg/L | <50%, low toxicity | 10.91 µg/mL (≈ 29.8 µM)
10 | O=C1CC(C(=O)OCCC=C(F)F)C(c2cc(C(F)(F)F)cc(C(F)(F)F)c2)O1 (centres unmarked) [Compound 47] | 12.24 µg/mL (≈ 28.3 µM) | >10, low toxicity mg/L | <50%, low toxicity | 11.41 µg/mL (≈ 26.4 µM)
11 | O=C1CC(C(=O)OCCC(F)=C(F)F)C(c2cc(Br)cc(Br)c2)O1 (centres unmarked) [Compound 18] | 12.47 µg/mL (≈ 26.4 µM) | >10, low toxicity mg/L | <50%, low toxicity | 10.23 µg/mL (≈ 21.7 µM)
12 | CCc1ccc(C2OC(=O)CC2C(=O)OCCC=C(F)F)cc1 (centres unmarked) [Compound 4] | 10.24 µg/mL (≈ 31.6 µM) | >10, low toxicity mg/L | <50%, low toxicity | 10.25 µg/mL (≈ 31.6 µM)
13 | CCOc1ccccc1C1OC(=O)CC1C(=O)OCCC(F)=C(F)F (centres unmarked) [Compound 43] | 13.35 µg/mL (≈ 37.3 µM) | >10, low toxicity mg/L | <50%, low toxicity | 11.98 µg/mL (≈ 33.4 µM)
14 | O=C1CC(C(=O)OCCC(F)=C(F)F)C(c2ccccc2OC(F)(F)F)O1 (centres unmarked) [Compound 41] | 13.86 µg/mL (≈ 34.8 µM) | >10, low toxicity mg/L | <50%, low toxicity | 11.41 µg/mL (≈ 28.6 µM)

From US10111428B2, “Nematocide containing lactonic ring and preparation method and application thereof” (priority 2015, dated 2018)
